Experimental data as given in patent US20170349548A1, “P21-ACTIVATED KINASE INHIBITOR” (Biosystem Consulting Limited Company, priority 2014, published 2017).
Several values for one entry are separate records, joined by “and”; a condition that tells them apart may be missing. Identical values can stand only once.

Each molecule was assayed against T1, Human PAK1 (Homo sapiens, UniProt Q13153) (assay: PAK1 inhibitory activity, ADP-Glo kinase assay). Conditions: Human PAK1 25 ng; 10 min preincubation with test compound, 40 min with ATP/substrate mix; room temperature; luminescence; read-out: IC50 (PAK1 inhibitory activity).
T1 construct: purchased Promega V4479
T1 sequence (Q13153 whole entry): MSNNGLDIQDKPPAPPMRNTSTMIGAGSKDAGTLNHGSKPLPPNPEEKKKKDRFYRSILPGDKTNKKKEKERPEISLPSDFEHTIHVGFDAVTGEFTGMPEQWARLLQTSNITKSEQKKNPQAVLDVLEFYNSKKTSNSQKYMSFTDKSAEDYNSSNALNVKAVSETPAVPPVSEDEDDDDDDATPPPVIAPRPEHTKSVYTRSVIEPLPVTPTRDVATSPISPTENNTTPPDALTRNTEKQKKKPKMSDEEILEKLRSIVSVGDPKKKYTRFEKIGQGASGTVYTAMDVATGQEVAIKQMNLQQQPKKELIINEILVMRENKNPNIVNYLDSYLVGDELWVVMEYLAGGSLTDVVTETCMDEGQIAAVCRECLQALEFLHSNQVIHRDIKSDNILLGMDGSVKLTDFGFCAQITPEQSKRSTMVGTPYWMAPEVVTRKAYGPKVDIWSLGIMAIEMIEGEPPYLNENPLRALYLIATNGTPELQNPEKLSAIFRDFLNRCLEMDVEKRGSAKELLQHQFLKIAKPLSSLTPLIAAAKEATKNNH
Assay type: biochemical
Description: The PAK inhibitory activities of the dehydrokawain compounds, mimosine or derivatives thereof and cucurbitacin I were determined. Assay of the PAK1 inhibitory activity was carried out using an ADP-Glo™ kinase assay kit (V4479, Promega, Madison, Wis.). Human PAK1 (10 μL) at a reaction concentration of 25 ng was incubated with 5 μL of the test compounds at the respective concentrations for 10 minutes. At the beginning of the reaction, 2.5×ATP/substrate mix (10 μL) was added and incubated for 40 minutes. The reaction was terminated by adding […]. In addition, 50 μL of Kinase detection reagent was added to cause the conversion of ADP to ATP and the emission reaction of freshly synthesized ATP. After incubation for 30 minutes, the intensity of emission in each well was measured by a Microplate Reader (MTP-880Lab, Corona) for 0.5 seconds as integration time. To the blank well was added all of the ingredients except for the test compounds and enzymes. The procedure was conducted at room temperature all the time. The inhibition rate was determined as the value on the kinase activity of control to which the inhibitor was not added.

| IC50 | SMILES |
| --- | --- |
| 0.6 µM | N[C@@H](Cn1ccc(=O)c(O)c1)C(=O)N[C@@H](Cc1ccccc1)C(=O)N[C@@H](Cc1c[nH]c2ccccc12)C(=O)N[C@@H](Cc1ccc(O)cc1)C(=O)O [MFWY] |
| 1.2 µM | COc1cc(CCc2ccc(OC)c(OC)c2)oc(=O)c1 [H2, 6-(3,4-dimethoxyphenethyl)-4-methoxy-2H-pyran-2-one] |
| 1.6 µM | COc1cc(/C=C/c2ccc(OC)c(OC)c2)oc(=O)c1 [H1, 6-(3,4-dimethoxystyryl)-4-methoxy-2H-pyran-2-one] |
| 2 µM | COc1cc(CCc2ccc(O)c(O)c2)oc(=O)c1 [H3, 6-(3,4-dihydroxyphenethyl)-4-methoxy-2H-pyran-2-one] |
| 15 µM | Oc1ccc(C=Cc2cc(O)cc(O)c2)cc1 [Resveratrol, resveratrol, reference compound] |
| 30 µM | N[C@H](CO)Cn1ccc(=O)c(O)c1 [Mimosinol, mimosinol] |
| 340 µM | O=c1c(O)c(-c2ccc(O)c(O)c2)oc2cc(O)cc(O)c12 [Quercetin, quercetin, reference compound] |
| 10 µM and 10.3 µM | COc1cc(CCc2ccccc2)oc(=O)c1 [DDK, dihydro-5,6-dehydrokawain] |
| 0.13 µM | N[C@@H](Cn1ccc(=O)c(O)c1)C(=O)N[C@@H](Cc1ccccc1)C(=O)N[C@@H](Cc1ccccc1)C(=O)N[C@@H](Cc1ccc(O)cc1)C(=O)O [MFFY] |
| 2.3 µM | N[C@@H](Cn1ccc(=O)c(O)c1)C(=O)N[C@@H](Cc1ccccc1)C(=O)N[C@@H](Cc1ccc(O)cc1)C(=O)N[C@@H](Cc1ccc(O)cc1)C(=O)O [MFYY] |
| 37 µM | N[C@@H](Cn1ccc(=O)c(O)c1)C(=O)O [Mimosine, β-[N-(3-hydroxy-4-pyridone)]-α-aminopropionic acid] |
| 17 µM and 17.1 µM | COc1cc(/C=C/c2ccccc2)oc(=O)c1 [DK, 5,6-dehydrokawain] |

Same assay, conditions: IC50 (PAK1 inhibitory activity), Human PAK1 25 ng; 10 min preincubation with test compound, 40 min with ATP/substrate mix; room temperature; luminescence

| SMILES | IC50 [µM] |
| --- | --- |
| CC(C)(O)/C=C/C(=O)[C@](C)(O)[C@H]1[C@H](O)C[C@@]2(C)[C@@H]3CC=C4C(C=C(O)C(=O)C4(C)C)[C@]3(C)C(=O)C[C@]12C (stereo partly shown) [Cucurbitacin I, cucurbitacin I] | 19 |
